Measured values taken from patent US9925274B2, “Delphinidin complex as an antiphlogistic or immunosuppressive active ingredient” (priority 2012, dated 2018).
Entries after “also recorded” stand apart in the source; their conditions may differ. Read-outs that look alike come from different tables or passages of the source.

Tests used:
[1] = system: Cc17 [chemokine (C—C motif) ligand 7] mRNA expression in cEND cells; details: for Effect on the TNFα-induced rise in Cc17 mRNA expression: TNFα 24 h
[2] = system: tight junction protein claudin-5 mRNA expression in cEND cells; assay: claudin-5 mRNA expression in cEND cells with or without TNFα (Example 10); type: cell-based, murine
From the text: The surrogate marker used for the tightness of the barrier was the expression of the tight junction protein claudin-5 (Forster C. Tight junctions and the modulation of barrier function in disease. Histochem Cell Biol. 2008; 130: 55-70) and the procedure carried out was analogous to example 8.

[3] = system: NFKB; assay: Concentration of NFKB in the nucleus of monocytes after stimulation with LPS and/or delphinidin (immunofluorescence nuclear staining; Examples 6-8); type: cell-based; set-up: Inhibitory effect on the cell immune response compared to hydrocortisone: dose or concentration left out as unconfirmed
Protocol: For healthy test subjects, the concentration of NFKB in the nucleus of monocytes after stimulation with LPS and/or delphinidin was assayed by means of immunofluorescence nuclear staining for NFKB and expressed in relation to nonstimulated cells. NFKB is activated by various stimuli, especially inflammatory and stress-associated stimuli.
The following procedure was carried out and shown in FIG. 1 from left to right, with the stimulation/incubation of the cells (1 ml in each case of RPMI-1640 comprising 1 million cells in the exponential growth phase) taking place at 37° C. in a well of a 24-well polystyrene cell culture dish and the specified concentrations being final concentrations: • “1.5 h 10 μg LPS”—Stimulation of the cells for 1.5 h with 10 μg/ml LPS (control) • “24 h prestim. 5 μM Del-Cl; 1.5 h 10 μg LPS”—24 h prestimulation of the cells with 5 μM delphinidin chloride (dissolved in RPMI-1640 cell medium) and then 1.5 h stimulation with 10 μg/ml LPS • “1.5 h 5 μM Del-Cl+10 μg LPS”—1.5 h simulation of the cells with 10 μg/ml LPS and 5 μM delphinidin chloride (dissolved in RPMI-1640 cell medium) • “24 h prestim. 5 μM Del-Cl; 1.5 h 5 μM Del-Cl”—24 h prestimulation of the cells with 5 μM delphinidin chloride (dissolved in RPMI-1640 cell medium) and then renewed stimulation with 5 μM delphinidin chloride (dissolved in RPMI-1640 cell medium) for 1.5 h • “24 h prestim. 5 μM Del-Cl; 1.5 h 5 μM Del-Cl+10 μg LPS”—24 h prestimulation of the cells with 5 μM delphinidin chloride (dissolved in RPMI-1640 cell medium) and then renewed stimulation with 5 μM delphinidin chloride (dissolved in RPMI-1640 cell medium) and 10 μg/ml LPS for 1.5 h
A procedure analogous to the methodology in example 5 was carried out and shown in FIGS. 2a and 2b from left to right, with the stimulation/incubation of the cells (1 ml in each case of RPMI-1640 comprising 1 million cells in the exponential growth phase) taking place at 37° C. in a well of a 24-well polystyrene cell culture dish and the specified concentrations being final concentrations:
FIG. 2a: • “1.5 h 10 μg LPS”—Stimulation of the cells for 1.5 h with 10 μg/ml LPS (control) • “1.5 h 5 μM Del-Cl+10 μg LPS”—1.5 h simulation of the cells with 10 μg/ml LPS and 5 μM delphinidin chloride (dissolved in RPMI-1640 cell medium) • “1.5 h hydrocortisone+10 μg LPS”—Stimulation of the cells for 10^−5 M hydrocortisone and 10 μg/ml LPS for 1.5 h
FIG. 2b: • “1.5 h 10 μg LPS”—Stimulation of the cells for 1.5 h with 10 μg/ml LPS (control) • “1.5 h 10 μM Del-Cl+10 μg LPS”—1.5 h simulation of the cells with 10 μg/ml LPS and 10 μM delphinidin chloride (dissolved in RPMI-1640 cell medium)
A procedure analogous to the methodology in examples 5 and 6 was carried out and shown in FIG. 3 from left to right, with the stimulation/incubation of the cells (1 ml in each case of RPMI-1640 comprising 1 million cells in the exponential growth phase) taking place at 37° C. in a well of a 24-well polystyrene cell culture dish and the specified concentrations being final concentrations: • “1.5 h 2.5 μM Del-Cl”—1.5 h stimulation of the cells with 2.5 μM delphinidin chloride (dissolved in RPMI-1640 cell medium) • “1.5 h 5 μM Del-Cl”—1.5 h simulation of the cells with 5 μM delphinidin chloride (dissolved in RPMI-1640 cell medium) • “1.5 h 10 μM Del-Cl”—1.5 h stimulation of the cells with 10 μM delphinidin chloride (dissolved in RPMI-1640 cell medium) • “1.5 h hydrocortisone”—1.5 h stimulation of the cells with […] hydrocortisone

[4] = Stability experiments in aqueous solution: 0.9% NaCl, 37° C., delphinidin content by HPLC (Example 5); type: physicochemical; details: dark, start 1.584 mg/ml (complex) or 0.0216 mg/ml (uncomplexed)
Protocol: The content of delphinidin chloride in the delphinidin-containing solutions was determined by using a reverse-phase HPLC method similar to the one already described above. This used the following reagents: • Purified water • Methanol for chromatography • Formic acid, p. a. • 1 M Hydrochloric acid as volumetric solution.
The solutions were produced at room temperature and then stored in closed vials in the dark at 37° C.
After 1, 2, 3 and 4 h, the delphinidin content was determined. The table below specifies the ascertained content as a percentage of the above-stated starting concentration.

[5] = Solubility of delphinidin chloride in aqueous cyclodextrin solutions (Example 1); details: neutral aqueous solution with 10% by weight cyclodextrin (β-CD 2%) or pure water; excess delphinidin chloride; stirred in the dark at 30° C. for 20 h; 0.22 μm filtration
[6] = conclusion from the measured results

With `Oc1cc(O)c2cc(O)c(-c3cc(O)c(O)c(O)c3)[o+]c2c1.[Cl-]` [delphinidin, Delphinidin chloride] the “Effect on the TNFα-induced rise in Cc17 mRNA expression” value ([1]; then delphinidin 0.1 μM for a further 24 h, FIG. 4) was “distinct suppression or inhibition”, the “Effect on the TNFα-induced rise in Cc17 mRNA expression” value ([1]; then delphinidin 1 μM for a further 24 h, FIG. 4) was “distinct suppression or inhibition” and the “Antiphlogistic effect on the blood-brain barrier after inflammation relative to dexamethasone” value [1, 6] was “at least equivalent”. The “Effect on Cc17 expression without prior TNFα exposure” value ([1]; delphinidin alone in the cell culture medium, FIG. 4) was “suppression of Cc17 expression”, the “Effect on the TNFα-mediated decrease in claudin-5 mRNA expression” value ([2]; then delphinidin 0.1 μM, FIG. 5) was “counteracted this TNFα-mediated decrease” and the “Effect on the TNFα-mediated decrease in claudin-5 mRNA expression” value ([2]; then delphinidin 1 μM, FIG. 5) was “counteracted this TNFα-mediated decrease”. The “Barrier of the blood-brain barrier after inflammation” value [2, 6] was “strongly increases”, the “Effect on claudin-5 mRNA expression without prior TNFα exposure” value ([2]; delphinidin alone in the cell culture medium, FIG. 5) was “increase in claudin-5 mRNA expression” and the “Inhibition of the LPS-mediated immune response (NFKB in the nucleus)” value ([3]; 1.5 h 5 μM Del-Cl + 10 μg/ml LPS simultaneously, FIG. 1, FIG. 2a) was “inhibition of the immune response; also recorded: inhibited at least just as well as by means of addition of hydrocortisone”. For the same compound, the “Inhibition of the LPS-mediated immune response (NFKB in the nucleus)” value ([3]; 1.5 h 10 μM Del-Cl + 10 μg/ml LPS, repeat experiment FIG. 2b) was “significantly reduced”, the “Inhibition of the cell immune response with varying concentration (NFKB in the nucleus)” value ([3]; 1.5 h 2.5, 5 and 10 μM Del-Cl, without LPS, FIG. 3) was “increase in the delphinidin-mediated inhibition of the cell immune response (dose effect)” and the “Inhibition of the LPS-mediated immune response (NFKB in the nucleus)” value ([3]; 24 h prestimulation 5 μM Del-Cl, then 1.5 h 5 μM Del-Cl + 10 μg/ml LPS, FIG. 1) was “further intensified (additive effect)”. The “Inhibition of the LPS-mediated immune response (NFKB in the nucleus)” value ([3]; 24 h prestimulation with 5 μM Del-Cl, then 1.5 h 10 μg/ml LPS, FIG. 1) was “(weakly) inhibits”, the “Inhibitory effect on the cell immune response compared to hydrocortisone” value ([3]; appropriately high delphinidin concentration, 1.5 h, comparison hydrocortisone, FIG. 3) was “comparable to that of hydrocortisone” and the “Delphinidin content as a percentage of the starting concentration” value (from here on “Delphinidin content as a percentage”) ([4]; 0 h) was 100%. The “Delphinidin content as a percentage” value ([4]; 1 h) was 8.3%, the “Delphinidin content as a percentage” value ([4]; 2 h) was 6.5% and the “Delphinidin content as a percentage” value ([4]; 3 h) was 5.6%. The “Delphinidin content as a percentage” value ([4]; 4 h) was 5.1% and the “Attainable solubility, Delphinidin chloride” value [5] was 0.07 mg/mL.
For `C[C@]12CCC(=O)C=C1CC[C@@H]1[C@@H]2[C@@H](O)C[C@@]2(C)[C@H]1CC[C@]2(O)C(=O)CO` [hydrocortisone, reference compound], the “Inhibition of the LPS-mediated immune response (NFKB in the nucleus)” value ([3]; 1.5 h 10^−5 M hydrocortisone + 10 μg/ml LPS, FIG. 2a) was “inhibited”.
